Measured values reported in patent US7456225B1, “Liver protection compounds of the cyclohexenone type from Antrodia camphorata” (Golden Biotechnology Corporation, priority 2007, dated 2008).
Marks after values point to notes of the source that are not given here.

Columns and labels:
Format in all cases: in vivo, Sprague-Dawley (SD) rats
[1] = tested on: CCl4 induced liver injury in rats; experiment: Histological evaluation of liver injury (H&E, Jonker et al. 0-4 scale); conditions: for Liver injury score: 0-4 scale, CCl4-treated rats, 8 weeks; for Liver injury +, counts of pathological rats: level 1 = +, slight; for Liver injury ++, counts of pathological rats: level 2 = ++, mild; for Liver injury +++, counts of pathological rats: level 3 = +++, moderate; for Liver injury ++++, counts of pathological rats: level 4 = ++++, remarkable
Method: (§1) The animal model was performed with five-week-old Sprague-Dawley (SD) rats purchased from BioLasco Taiwan Co., Ltd. Healthy rats weighing 220-270 g were chosen for experiment after observing for 2 weeks in the laboratory animal room. The rats were randomly divided into 6 groups (12 rats/group): normal (gp. A); control groups including model control (gp. B) and positive control (gp. C, animals receiving silymarin); treatment groups including animals receiving 300 mg/kg of cyclohexenone (gp. D), 1000 mg/kg of cyclohexenone (gp. E), and 3000 mg/kg of cyclohexenone (gp. F), as indicated in Table 1. Only normal group was not poisoned with CCl4. The body weights were recorded to calculate the dosage. […] It helps to remove toxins from liver cells by either neutralizing the toxicity of toxic compounds or competing with the binding sites in liver. It is a potent antioxidant, protects the liver from free radicals. It has been widely studied for treating various types of liver injury in animals and clinical trials. The beneficial effects on liver protection have made silymarin a good medicine for liver diseases and a drug in positive control group for the animal model of liver injury.
(§2) Rats in normal group (group A) were fed with corn oil (Sigma chemical co.) by means of stomach tubes. Carbon tetrachloride (Shimakyu, Osaka, Japan) was administered to groups B to F via stomach tubes twice weekly (every Tuesday and Thursday afternoon) for 8 weeks, at a dose of 2 ml/kg of body weight, diluted with corn oil. Silymarin was prepared with saline in an amount of 200 mg/kg of body weight and was fed to rats of group C via a stomach tube. Cyclohexenone prepared from example 1 was mixed with saline, and fed in the amounts of 300 mg/kg, 1000 mg/kg and 3000 mg/kg of body weight to rats of group D to F via stomach tubes. The total feeding volume was estimated in the ratio of 10 ml/kg of body weight to groups C to F five days a week (every morning) for 8 weeks. The body weights of rats and the amounts of food intake in rats for each group were shown in FIG. 1 and FIG. 2, respectively.
The pathological changes of the liver surface were examined with naked eyes when the liver was taken out from rats, and then tissue sections were made. Half of each liver lobe was stored at −80° C. for antioxidant enzyme assay to follow up. The rest of liver tissues were fixed in 10% formalin for one week, embedded in paraffin cut into 2 μm sections, and stained with Hematoxyline-eosin (H&E) to visualize the lipid deposition, inflammation, cell necrosis and fibrosis, or stained with Masson's trichromic solution to visualize extracellular matrix and collagen fibers for liver fibrosis development. The pathological changes of liver injury were evaluated under light microscope (Opticphot-2, Nikon, Tokyo, Japan) after stained with the abovementioned solution.
Assessment of pathologic score in the chronic liver damage, the extent of inflammation, vacuolar degeneration, liver cell necrosis and bile duct proliferation were graded semi-quantitatively on a “0” to “4” scale (level 0=−, none, level 1=+, slight, level 2=++, mild, level 3=+++, moderate, and level 4=++++, remarkable, according to Jonker et al. (Jonker, A. M., Dijkhuis, F. W., Boes, A., Hardonk, M. J. and Grond J. 1992. Immunohistochemical study of extracellular matrix in acute galactosamine hepatitis in rats. Hepatology. 15(3):423-31).

[2] = tested on: CCl4 treated, liver injury model animals; experiment: Antioxidant enzymes in liver (GSH, GSHPx, catalase, SOD); conditions: CCl4-treated rats, 8 weeks
Method: as §1, §2
The liver stored at −80° C. as described above was immersed in PBS buffer (phosphate buffered saline solution, pH 7.4) containing 0.16 mg/ml heparin. Red blood cells were removed from the tissue. Liver was prepared as 1.0 g tissue/10 mL buffer homogenates in fresh, chilled 50 mM phosphate, 1 mM EDTA (pH 6-7) buffer using a Polytron homogenizer (setting 5, PT 10 probe, Brinkmann Instruments, Westbury, N.Y.) for one min. The solution was centrifuged at 10,000×g for 15 min at 4° C. Protein concentration was determined with a BCA protein assay kit (Pierce, Ill., USA) at 550 nm using an enzyme linked immunosorbent assay (ELISA) reader (MAX ELISA Reader, Quant, Bio-Tek Instrument, Vermont, USA). Commercial kits of glutathione (GSH), glutathione peroxidase (GSHPx), catalase (CAT), superoxide dismutase (SOD) (Glutathione Assay Kit, Cat No. 703002; Glutathione Peroxidase Assay Kit, Cat No. 703102; Catalase Assay Kit, Cat No. 707002; Superoxide Dismutase Assay Kit, Cat No. 706002) were purchased from Cayman Chemical Company (MI.USA) and assayed by reading at 405 nm, 340 nm, 540 nm and 450 nm using an ELISA reader. Deprotein step was carried out for all the assays mention above except SOD assay. Proteins were precipitated by mixing with equal volume of 10% metaphosphoric acid (w/v), vortex-mixed evenly, centrifuged at 2,000×g for 2 min. The supernatant was removed for enzyme assay. All values are expressed as mean ±SD, which were evaluated using One-way Analysis of Variance. Those with significant differences were further tested with the Least Significant Difference Test (LSD) or Student t-test to compare cyclohexenone treatment groups and normal groups, positive control and model groups. P<0.05 was selected as criterion for statistical significance in all cases.

[3] = tested on: CCl4-induced liver injury in rats; experiment: Pathological changes of the liver surface observed with naked eyes; conditions: CCl4-treated rats, 8 weeks
Method: as §1, with “The beneficial effects on liver protection have made silymarin a good medicine for liver diseases and a drug in positive control group for the animal model of liver injury.” left out
The pathological changes of the liver surface were examined with naked eyes when the liver was taken out from rats, and then tissue sections were made. […] The pathological changes of liver injury were evaluated under light microscope (Opticphot-2, Nikon, Tokyo, Japan) after stained with the abovementioned solution. […]

## COC1=C(OC)C(O)C(C/C=C(\C)CC/C=C(\C)CCC=C(C)C)C(C)C1=O (stereo not shown) [Cyclohexenone from Antrodia camphorata, 4-hydroxy-2,3-dimethoxy-6-methyl-5(3,7,11-trimethyl-dodeca-2,6,10-trienyl)-cyclohex-2-enone]
[1]; cyclohexenone 300 mg/kg
  Liver injury score: 1.8*^a
  Liver injury +, counts of pathological rats: 5
  Liver injury ++, counts of pathological rats: 6
  Liver injury ++++, counts of pathological rats: 1
[1]; cyclohexenone 300 mg/kg, listed as cyclohexenone from Antrodia camphorata
  Liver injury score: 1.8
[1]; cyclohexenone 1000 mg/kg
  Liver injury score: 2.0*^a
  Liver injury +, counts of pathological rats: 3
  Liver injury ++, counts of pathological rats: 6
  Liver injury +++, counts of pathological rats: 1
  Liver injury ++++, counts of pathological rats: 1
[1]; cyclohexenone 1000 mg/kg, listed as cyclohexenone from Antrodia camphorata
  Liver injury score: 2.0
[1]; cyclohexenone 3000 mg/kg
  Liver injury score: 2.3*^a
  Liver injury +, counts of pathological rats: 2
  Liver injury ++, counts of pathological rats: 6
  Liver injury +++, counts of pathological rats: 1
  Liver injury ++++, counts of pathological rats: 2
[1]; CCl4 treated rats fed with different amount of cyclohexenone (300, 1000, 3000 mg/kg)
  effects in liver injury and liver fibrosis compared with silymarin: better effects than silymarin
[2]; cyclohexenone 300 mg/kg
  Catalase: 9.1 ± 1.0 U/mg protein
  GSH (Glutathione activity): 30.3 ± 3.2 uM/mg protein
  GSHPx (glutathione peroxidase activity): 9.6 ± 1.7 nmol/min/mL
  SOD: 0.47 U/mg protein
[2]; cyclohexenone 1000 mg/kg
  Catalase: 10.1 ± 1.4 U/mg protein
  GSH (Glutathione activity): 25.2 ± 1.8*^a uM/mg protein
  GSHPx (glutathione peroxidase activity): 11.2 ± 3.4 nmol/min/mL
  SOD: 0.52 ± 0.28 U/mg protein
[2]; cyclohexenone 3000 mg/kg
  Catalase: 9.8 ± 0.9 U/mg protein
  GSH (Glutathione activity): 26.7 ± 4.3*^a uM/mg protein
  GSHPx (glutathione peroxidase activity): 10.6 ± 3.1 nmol/min/mL
  SOD: 0.73 ± 0.23 U/mg protein
[3]; cyclohexenone 3000 mg/kg
  swelling and pathological conditions of liver surface (naked eyes): slightest condition in swelling and pathological conditions
[3]; various amounts of cyclohexenone (300, 1000, 3000 mg/kg), vs model group
  extents of liver pathological changes (liver surface, naked eyes): significantly weaker than that of model group
